This note sets out measurements from PubChem BioAssay AID256 (DTP/NCI, 2004).

The assay concerns CD2F1 mice, L1210 leukemia ip, survival T/C. Put plainly: NCI In Vivo Anticancer Drug Screen. Data for tumor model L1210 Leukemia (intraperitoneal) in CD2F1 (CDF1) mice. As to conditions: endpoint: mean survival time, higher = longer survival. In short, it runs like this: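 Antitumor effect is scored in animals hosting a serially transplanted tumor. Values compare compound-dosed animals against vehicle-only controls as a simple quotient.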

Where [1] appears, read: dose: 50.0 mg/kg/injection, schedule: Q01DX009 (ip), vehicle: saline with Tween-80.
Setting [2] is: dose: 100.0 mg/kg/injection, schedule: Q01DX009 (ip), vehicle: saline with Tween-80.
Setting [3] is: dose: 200.0 mg/kg/injection, schedule: Q01DX009 (ip), vehicle: saline with Tween-80.
[4] abbreviates: dose: 400.0 mg/kg/injection, schedule: Q01DX009 (ip), vehicle: saline with Tween-80.
The mark [5] stands for this setting: dose: 200.0 mg/kg/injection, schedule: Q04DX003 (ip), vehicle: saline with Tween-80.
The mark [6] stands for this setting: dose: 100.0 mg/kg/injection, schedule: Q04DX003 (ip), vehicle: saline with Tween-80.
Setting [7] is: dose: 400.0 mg/kg/injection, schedule: Q04DX003 (ip), vehicle: saline with Tween-80.
The mark [8] stands for this setting: dose: 100.0 mg/kg/injection, schedule: Q01DX001 (ip), vehicle: saline.
The mark [9] stands for this setting: dose: 100.0 mg/kg/injection, schedule: Q04DX002 (ip), vehicle: saline with Tween-80.
[10] abbreviates: dose: 200.0 mg/kg/injection, schedule: Q01DX001 (ip), vehicle: saline.
[11] abbreviates: dose: 200.0 mg/kg/injection, schedule: Q04DX002 (ip), vehicle: saline with Tween-80.
[12] abbreviates: dose: 400.0 mg/kg/injection, schedule: Q01DX001 (ip), vehicle: saline.
[13] abbreviates: dose: 400.0 mg/kg/injection, schedule: Q04DX002 (ip), vehicle: saline with Tween-80.
Where [14] appears, read: dose: 25.0 mg/kg/injection, schedule: Q01DX009 (ip), vehicle: saline with Tween-80.
Where [15] appears, read: dose: 100.0 mg/kg/injection, schedule: Q01DX001 (ip), vehicle: saline with Tween-80.
[16] abbreviates: dose: 200.0 mg/kg/injection, schedule: Q01DX001 (ip), vehicle: saline with Tween-80.
Where [17] appears, read: dose: 400.0 mg/kg/injection, schedule: Q01DX001 (ip), vehicle: saline with Tween-80.

Values joined by “and” are separate entries in the source; they are usually repeats but may differ in a detail not shown here. Identical values can stand only once. Inconclusive results and toxic doses are left out. Non-standard residues stand in square brackets, D forms with d. Residues, ends and D or L forms follow the SMILES beside them. ξ: configuration not given here. *: point of attachment. ξAsp(βξ-Me) = CC(C(=O)O)C(N)C(=O)O; X5 = CC(N*)C1NC(=O)C2CCCCN2C1=O; ξAbu(3ξ-NH2) = CC(N)C(N)C(=O)O; X4 = CCC(C)CCC/C=C/CC(=O)*

Regarding `CCC(C)CCC/C=C/CC(=O)NC(CC(=O)O)C(=O)NC(C(=O)NC(CC(=O)O)C(=O)NCC(=O)NC(CC(=O)O)C(=O)NCC(=O)NC(C(=O)NC(C(=O)N1CCCC1C(=O)NC(C)C1NC(=O)C2CCCCN2C1=O)C(C)C)C(C)N)C(C)C(=O)O` (stereo not drawn) (X4-D[ξAsp(βξ-Me)]DGDG[ξAbu(3ξ-NH2)]VP-X5; configuration not given here), the T/C is, setting by setting: (dose: 100.0 mg/kg/injection, schedule: Q01DX009 (ip), vehicle: saline + alcohol) 93 % of control; (dose: 200.0 mg/kg/injection, schedule: Q01DX009 (ip), vehicle: saline + alcohol) 87 % of control.

On to `CC(C)(C)C(=O)CC(O)(C(F)(F)Cl)C(F)(F)Cl`, for which the T/C is, setting by setting: under setting [1], 111 % of control; under setting [2], 116 % of control and 108 % of control; under setting [3], 92 % of control and 95 % of control; under setting [4], 113 % of control.

`Cc1[nH]ccc2c(C)c3nc4ccccc4c3cc12`: the T/C is, setting by setting: under setting [1], 152 % of control; under setting [2], 117 % of control; under setting [5], 96 % of control.

In the case of `CNC/C(C)=C/Cl`, the T/C (dose: 50.0 mg/kg/injection, schedule: Q01DX009 (ip), vehicle: acetone) is 96 % of control and the T/C (dose: 100.0 mg/kg/injection, schedule: Q01DX009 (ip), vehicle: acetone) was 90 % of control.

As to `Cc1cccc(OP(=O)(c2ccccc2)c2ccccc2)c1`, the T/C was 98 % of control under setting [6], 98 % of control under setting [5] and 103 % of control under setting [7].

In the case of `COc1ccc(C(=O)CC(C#N)c2ccc(OC)c(OC)c2)cc1OC` (centres undefined), the T/C under setting [6] was 98 % of control, the T/C under setting [5] was 101 % of control and the T/C under setting [7] is 98 % of control.

Regarding `O=S(=O)(Nc1ccc2c3c(cccc13)C=C2)c1ccccc1`, the T/C by setting is: under setting [6], 98 % of control; under setting [5], 98 % of control; under setting [7], 98 % of control.

As to `Nc1cccc(=O)[nH]1`, the T/C is 96 % of control (dose: 12.5 mg/kg/injection, schedule: Q01DX009 (ip), vehicle: suspension in saline); 96 % of control and 104 % of control (dose: 25.0 mg/kg/injection, schedule: Q01DX009 (ip), vehicle: suspension in saline); 95 % of control and 96 % of control (dose: 50.0 mg/kg/injection, schedule: Q01DX009 (ip), vehicle: suspension in saline); 90 % of control and 96 % of control (dose: 100.0 mg/kg/injection, schedule: Q01DX009 (ip), vehicle: suspension in saline); 102 % of control and 107 % of control (dose: 200.0 mg/kg/injection, schedule: Q01DX009 (ip), vehicle: suspension in saline); 104 % of control (dose: 400.0 mg/kg/injection, schedule: Q01DX009 (ip), vehicle: suspension in saline).

For `C#CC(OC(=O)Nc1ccccc1)C1OC2OC(C)(C)OC2C2OC(C)(C)OC12` (centres undefined), the T/C was 97 % of control under setting [1], 93 % of control under setting [2] and 97 % of control under setting [3].

Take `CC1C=CC(C)S1` (centres undefined): the T/C under setting [8] is 100 % of control; the T/C under setting [9] was 101 % of control; the T/C under setting [10] is 101 % of control; the T/C under setting [11] was 104 % of control; the T/C under setting [12] was 105 % of control; the T/C under setting [13] was 112 % of control.

For the compound `c1ccc(COC2CN3CCC2CC3)cc1` (centres undefined), the T/C is 100 % of control under setting [14] and 100 % of control under setting [1].

In the case of `Nc1nc2c(ncn2-c2cccc(NC(=O)Nc3ccc(S(=O)(=O)F)cc3)c2)c(=O)[nH]1` (tested in a mixture with another compound), the T/C is, setting by setting: under setting [9], 94 % of control; under setting [11], 105 % of control; under setting [13], 86 % of control.

Take `CCC(C)Nc1ccc(N)cc1` (centres undefined): the T/C reads like this: (dose: 0.09 mg/kg/injection, schedule: Q01DX009 (ip), vehicle: Klucel (hydroxypropylcellulose) (HPC)) 103 % of control; (dose: 0.18 mg/kg/injection, schedule: Q01DX009 (ip), vehicle: Klucel (hydroxypropylcellulose) (HPC)) 94 % of control; (dose: 0.37 mg/kg/injection, schedule: Q01DX009 (ip), vehicle: Klucel (hydroxypropylcellulose) (HPC)) 103 % of control; (dose: 0.75 mg/kg/injection, schedule: Q01DX009 (ip), vehicle: Klucel (hydroxypropylcellulose) (HPC)) 103 % of control; (dose: 1.5 mg/kg/injection, schedule: Q01DX009 (ip), vehicle: Klucel (hydroxypropylcellulose) (HPC)) 102 % of control; (dose: 3.0 mg/kg/injection, schedule: Q01DX009 (ip), vehicle: Klucel (hydroxypropylcellulose) (HPC)) 94 % of control.

In the case of `CCCCCCCC/C=C/CCCCCCCC1=NCCN1CCO`, the T/C was 95 % of control under setting [9], 103 % of control under setting [11] and 100 % of control under setting [13].

With `O=[As](O)(CC(O)COc1ccccc1)c1cccc(Cl)c1` (centres undefined), the T/C was 103 % of control (dose: 6.25 mg/kg/injection, schedule: Q04DX003 (ip), vehicle: saline with Tween-80); 107 % of control (dose: 12.5 mg/kg/injection, schedule: Q04DX003 (ip), vehicle: saline with Tween-80); 100 % of control (dose: 25.0 mg/kg/injection, schedule: Q04DX003 (ip), vehicle: saline with Tween-80).

As to `c1cc(N2CCCC2)cc(N2CCCC2)c1`, the T/C by setting is: under setting [2], 96 % of control; under setting [6], 102 % of control; under setting [3], 88 % of control; under setting [5], 106 % of control; under setting [4], 88 % of control; under setting [7], 98 % of control.

Consider `N#CS.[Co+3].[NH-]CC[NH-].[NH-]CC[NH-].[NH-]CC[SH2+]`, for which the T/C runs as follows: (dose: 100.0 mg/kg/injection, schedule: Q04DX002 (ip), vehicle: saline) 112 % of control; (dose: 200.0 mg/kg/injection, schedule: Q04DX002 (ip), vehicle: saline) 104 % of control; (dose: 400.0 mg/kg/injection, schedule: Q04DX002 (ip), vehicle: saline) 108 % of control.

Turning to `COC(=O)C1OC(OC(C)=O)C(OC(C)=O)C(OC(C)=O)C1C(=O)OC` (centres undefined), the T/C is 93 % of control under setting [15]; 101 % of control under setting [2]; 95 % of control under setting [16]; 105 % of control under setting [3]; 93 % of control under setting [17]; 105 % of control under setting [4].

Consider `CC1(C)N=C(N)N=C(N)N1c1ccc(CCCCc2ccc(S(=O)(=O)F)cc2)c(Cl)c1`, for which the T/C reads like this: (dose: 13.0 mg/kg/injection, schedule: Q01DX009 (ip), vehicle: saline with Tween-80) 116 % of control; (dose: 20.0 mg/kg/injection, schedule: Q01DX009 (ip), vehicle: saline with Tween-80) 120 % of control; (dose: 45.0 mg/kg/injection, schedule: Q01DX009 (ip), vehicle: saline with Tween-80) 93 % of control.

Regarding `c1ccc2c3c(ccc2c1)OCCOCCOCCOCCOc1ccc2ccccc2c1-3`, the T/C is 91 % of control under setting [15], 100 % of control under setting [16] and 100 % of control under setting [17].

As to `CCOC(C=O)OCC`, the T/C under setting [8] is 103 % of control, the T/C under setting [10] was 97 % of control and the T/C under setting [12] is 103 % of control.

Consider `CC[N+](CC)=C1SCCCS1`, for which the T/C runs as follows: (dose: 6.25 mg/kg/injection, schedule: Q04DX003 (ip), vehicle: saline) 100 % of control; (dose: 12.5 mg/kg/injection, schedule: Q04DX003 (ip), vehicle: saline) 100 % of control; (dose: 25.0 mg/kg/injection, schedule: Q04DX003 (ip), vehicle: saline) 100 % of control.

Take `NC(C(=O)O)C(O)c1ccc2c(c1)OCO2` (centres undefined): the T/C under setting [6] was 98 % of control, the T/C under setting [5] was 92 % of control and the T/C under setting [7] is 95 % of control.

For `COc1ccc(-c2nccc3cc(OC)c(OC)cc23)cc1OC`, the T/C reads like this: (dose: 12.5 mg/kg/injection, schedule: Q01DX009 (ip), vehicle: water) 95 % of control; (dose: 25.0 mg/kg/injection, schedule: Q01DX009 (ip), vehicle: water) 95 % of control; (dose: 50.0 mg/kg/injection, schedule: Q01DX009 (ip), vehicle: water) 103 % of control.

Turning to `COc1cc(C)c(O)c(C[P+](c2ccccc2)(c2ccccc2)c2ccccc2)c1`, the T/C is 98 % of control under setting [14]; 94 % of control under setting [1]; 106 % of control (dose: 50.0 mg/kg/injection, schedule: Q04DX003 (ip), vehicle: saline with Tween-80); 96 % of control under setting [6].
